The source of these data is patent US10328033B2, “Methods and biocompatible compositions to achieve sustained drug release in the eye” (Integral Biosystems LLC, priority 2014, dated 2019).

The series can be described thus: Photo-oxidation stress by high intensity UV light. It counts as physicochemical. The note with it: UV 254 nm, 24 hours, in buffer alone. The procedure:
Nanomesh wafers (ML-ES-06-31) were tested for photo-oxidative degradation by high intensity UV light (254 nm, for 24 hours). […] In contrast, 50% of the travoprost in buffer alone was degraded under these conditions.

In the case of `CC(C)OC(=O)CCC/C=C\C[C@@H]1[C@@H](/C=C/[C@@H](O)COc2cccc(C(F)(F)F)c2)[C@H](O)C[C@@H]1O` [travoprost], the travoprost degraded is on record as 50%.
